Test results published in PMC11816990, “New Terpenoids and Lignans from Phyllanthus acidus Fruits with Antioxidant Activity” (Foods, 2025).

Columns and labels:
[1] = ABTS+ radical scavenging test; type: biochemical; settings: for Inhibition Rate (%): ABTS^+ inhibition, Concentration 250 μM
Method: The ABTS^+ radical scavenging test was conducted as reported previously, and was slightly modified. Specifically, the solvent was replaced with DMSO due to the high volatility of 80% methanol. Trolox was used as positive control. The scavenging activities of phenolic compounds 3, 4, and 10–17 were calculated based on the percentage of ABTS^+ radical scavenged using the equation:Inhibition rate (%) = (A blank − A sample)/A blank
IC50 values were calculated according to the Reed and Muench method.

[2] = tested on: five tumor cell lines; set-up: method as in PMID 17315965; settings: 40 μM; compound from Aspidopterys obcordate; cited from earlier work
[3] = tested on: ECA109; set-up: method as in doi:10.1016/j.tetlet.2013.06.082; settings: compound isolated from Phyllanthus flexuosus; cited from earlier work
[4] = tested on: A549; set-up: method as in doi:10.1016/j.tet.2021.132224; settings: compounds derived from Phyllanthus acidus; cited from earlier work
[5] = tested on: HONE; set-up: method as in doi:10.1016/j.tet.2021.132224; settings: compounds derived from Phyllanthus acidus; cited from earlier work
[6] = tested on: Hela cells; set-up: method as in doi:10.1016/j.tet.2021.132224; settings: compounds derived from Phyllanthus acidus; cited from earlier work
[7] = compound from Liriope muscari and Senecio scandens, versus Vitamin C; cited from earlier work
[8] = set-up: method as in PMID 22158590; settings: compound from Cordia sinensis, versus BHA; cited from earlier work

Row | Compound | IC50 ([1]; ABTS^+ radical scavenging) | IC50 ([1]; Table S1, ABTS+ inhibition) | Inhibition Rate (%) [1] | further results
1 | COc1cc(CCCOC(C)=O)cc2c1O[C@@H](c1ccc(O)cc1)[C@@H]2CO [Compound 3, 3-[(2R,3S)-2-(4-hydroxyphenyl)-3-(hydroxymethyl)-7-methoxy-2,3-dihydro-1-benzofuran-5-yl]propyl acetate] |  |  | 31.16 ± 0.38% | 
2 | CC(=O)OCCCc1ccc2c(c1)[C@H](CO)[C@@H](c1ccc(O)cc1)O2 [Compound 4, 3-[(2S,3R)-2-(4-hydroxyphenyl)-3-(hydroxymethyl)-2,3-dihydro-1-benzofuran-5-yl] propyl acetate] |  |  | 23.71 ± 0.37% | 
3 | C=Cc1c(C)c(O)cc2c1CC[C@@H]1C(C)(C)[C@H](O)C(=O)C[C@@]21C [Compound 5, aspidoptoid D] |  |  |  | cytotoxic activity against five tumor cell lines [2]: no significant cytotoxic activity
4 | C=Cc1c(C)c(O)cc2c1CC[C@@H]1C(C)(C)[C@H](O)[C@H](O)C[C@@]21C [Compound 6, cleistanthol] |  |  |  | cytotoxic activity against ECA109 [3]: weak cytotoxic activity; cytotoxic activity against A549 [4]: weaker cytotoxic activity; cytotoxic activity against HONE [5]: weaker cytotoxic activity; cytotoxic activity against Hela cells [6]: weaker cytotoxic activity
5 | C=Cc1c(C)c(O)cc2c1CC[C@@H]1C(C)(C)[C@H](O)CC[C@@]21C [Compound 7, spruceanol] |  |  |  | cytotoxic activity against A549 [4]: weaker cytotoxic activity; cytotoxic activity against HONE [5]: weaker cytotoxic activity; cytotoxic activity against Hela cells [6]: weaker cytotoxic activity

Second part, led by results:

Row | IC50 ([1]; ABTS^+ radical scavenging) | IC50 ([1]; Table S1, ABTS+ inhibition) | Compound | Inhibition Rate (%) [1] | further results
6 | 348 ± 12.2 µM | 348 ± 12.2 µM | COc1cc([C@H]2Oc3c(OC)cc(CCCOC(C)=O)cc3[C@@H]2CO)ccc1O [Compound 10, 3-[(2S,3R)-2-(4-hydroxy-3-methoxyphenyl)-3-(hydroxymethyl)-7-methoxy-2,3-dihydro-1-benzofuran-5-yl]propyl acetate] | 46.46 ± 0.83% | 
7 | 387 ± 8 µM | 387 ± 8.03 µM | COc1cc([C@H]2OC[C@@H]3[C@H]2CO[C@H]3c2ccc(O)c(OC)c2)ccc1O [Compound 12, (+) epipinoresinol] | 49.51 ± 1.60% | 
8 | 204 ± 4.7 µM | 204 ± 4.66 µM | COc1cc([C@@H]2OC[C@H]3[C@@H]2CO[C@H]3c2ccc(O)c(OC)c2)ccc1O [Compound 13, (-)-pinoresinol] | 60.12 ± 0.19% | antioxidant activities [7]: comparable to that of Vitamin C
9 | 362 ± 8.4 µM | 362 ± 8.39 µM | COc1cc(C(O)C(CO)Oc2ccc(CCCOC3OC(CO)C(O)C(O)C3O)cc2OC)ccc1O [Compound 14, 4,7,9-trihydroxy-3,3′-dimethoxy-8-O-4′-neolignan-9′-O-β-D-glucopyranoside] | 39.02 ± 1.35% | 
10 | 232.9 ± 1.9 µM | 233 ± 1.92 µM | O=C(O)/C=C/c1ccc(O)c(O)c1 [Compound 15, trans-caffeic acid] | 49.40 ± 0.72% | DPPH radical scavenging activity [8]: better DPPH radical scavenging activity than BHA
11 | 176 ± 2.1 µM | 176 ± 2.07 µM | Cc1c(C)c2c(c(C)c1O)CCC(C)(C(=O)O)O2 (stereo not drawn) [Trolox, reference compound] | 57.26 ± 1.38% | 
